The subject of one series is MOLT-4 cells. Description: Annexin V/PI flow cytometry viability of irradiated MOLT-4 cells. Format: cell-based, human. Conditions: 2 Gy; for viability at 100 µM / viability at 200 µM: Homo sapiens, 2 h pretreatment, 24 h. How it is done:
(§1) Consequently, we investigated whether the pre-application of these substances can augment the survival of MOLT-4 cells after irradiation exposure. The radioprotective investigation utilized a leukemia MOLT-4 cell model of hematopoietic origin with flow cytometric quantification of cell viability via annexin V/propidium iodide staining.
(§2) In the following step, at 24 h after irradiation, MOLT-4 cell viability and cell death were determined by flow cytometry using an Alexa Fluor® 488 annexin V/Dead Cell Apoptosis kit (Life Technologies, Grand Island, NY, USA) following the manufacturer's instructions. The Alexa Fluor®488 annexin V/Dead Cell Apoptosis kit employs the property of Alexa Fluor®488 conjugated to annexin V to bind to phosphatidylserine in the presence of Ca^2+; and the ability of propidium iodide to enter cells with damaged cell membranes and bind to DNA. For each sample, a minimum of 20 000 events were acquired using a CytoFLEX LX flow cytometer (Beckman Coulter, Miami, FL, USA). List mode data were analyzed using Kaluza Analysis 2.1 software (Beckman Coulter, Miami, FL, USA).
A general note: In flow cytometry, cells or beads pass a laser one at a time.

A short description of series [1]: WST-1 proliferation assay, HT-29. The note with it: human, HT-29 cells (colorectal adenocarcinoma), vs 0.1% DMSO control = 100%, mean ± standard deviation. In kind it is cell-based. How it is done:
(§3) A thorough analysis of antiproliferative activity was performed across various cell culture types representing different histotypes: leukemia (Jurkat, MOLT-4), lung adenocarcinoma (A549), colorectal adenocarcinoma (HT-29), pancreatic carcinoma (PANC-1), breast adenocarcinoma (MCF-7), osteosarcoma (SAOS-2), and one non-cancerous cell line (fetal lung fibroblasts MRC-5). The cell lines were exposed to the newly synthesized compounds at a concentration of 100 μM for 48 h in a single-dose treatment. Changes in cell proliferation compared to the vehicle 0.1% dimethyl sulfoxide (DMSO) control were determined using the WST-1 assay, which is based on mitochondrial dehydrogenase metabolic activities. […] The overall cytotoxic activity of each compound was expressed as growth percent (GP) – the mean of the proliferation of all cell lines treated with the same compound.
(§4) Selected human tumor and non-tumor cell lines Jurkat (acute T-cell leukemia), MOLT-4 (acute lymphoblastic leukemia), A549 (lung carcinoma), HT-29 (colorectal adenocarcinoma), PANC-1 (pancreas epithelioid carcinoma), MCF-7 (breast adenocarcinoma), SAOS-2 (osteosarcoma) and MRC-5 (normal lung fibroblasts) were purchased from either American Type Culture Collection (ATCC; VA, USA) or Sigma-Aldrich (St. Louis, MO, USA) and cultured according to the provider's culture method guidelines. All cell lines were maintained at 37 °C in a humidified 5% carbon dioxide and 95% air incubator. Cells in the maximum range of either 10 passages for the adherent cell lines (A549, HT-29, PANC-1, MCF-7, SAOS-2, and MRC-5), or 20 passages for suspension cell lines (Jurkat, MOLT-4,) and in an exponential growth phase were used for this study. Screening of the antiproliferative effect and growth percent calculation were conducted as follows: each cell line was seeded at previously established optimal density (1–50 × 10^3 cells per well) in a 96-well plate (TPP, Trasadingen, Switzerland) and cells were allowed to settle overnight. Cells were treated for 48 h with compounds at a final concentration of 100 μM. At the end of the cultivation period, the WST-1 proliferation assay (Roche, Basel, Switzerland) was performed according to the manufacturer's protocol. The absorbance was measured at 440 nm using a Tecan Spark multimode microplate reader (Tecan, Mannedorf, Switzerland). Each value is the mean of three independent experiments and represents the percentage of proliferation (100% cell proliferation for 0.1% DMSO mock-treated control cells). The GP value was calculated for each compound tested. GP represents the mean of the percentage proliferation decrease of all cell lines treated with the same compound.

Series [2] is described as follows: WST-1 proliferation assay, A549. In kind it is cell-based. The note with it: human, A549 cells (lung carcinoma), vs 0.1% DMSO control = 100%, mean ± standard deviation. How it is done: as §3, §4
A general note: Tetrazolium dyes change colour on reduction, which living cells bring about.

Series [3] in a line: WST-1 proliferation assay, MCF-7. In kind it is cell-based. Conditions: human, MCF-7 cells (breast adenocarcinoma), vs 0.1% DMSO control = 100%, mean ± standard deviation. How it is done:
as §3, §4

Series [4] in a line: Annexin V/PI flow cytometry viability of irradiated MOLT-4 cells. Format: cell-based, human. Conditions: human, MOLT-4 cells, not irradiated, no irradiation, 24 h, read-out: Viable (annexin V/PI negative) MOLT-4 cells, compound alone; for viability at 24 h, 200 µM: representative histogram Fig. 6A. How it is done: as §1, §2
Setting [5] is: MOLT-4, representative histogram Fig. 5A (2 Gy alone 26 %), read-out: Viable (annexin V/PI negative) MOLT-4 cells, compound + 2 Gy.
Where [6] appears, read: MOLT-4, representative histogram Fig. 6A (2 Gy alone 27 %), read-out: Viable (annexin V/PI negative) MOLT-4 cells, compound + 2 Gy.
Setting [7] is: 100 μM, representative histogram Fig. 5A.
The mark [8] stands for this setting: MOLT-4, light or radiation study, annexin V/PI negative cells, read-out: Viability rate of MOLT-4 cells relative to 2 Gy irradiation alone (100%).
Setting [9] is: MOLT-4, annexin V/PI negative cells, read-out: Viable MOLT-4 cells relative to 2 Gy radiation alone (100%).

SMILES strings stand for the structures. Where two headings read alike, the source gives them in different places.

As for `COc1cc([N+](=O)[O-])ccc1OCC(O)CN1CCN(CCO)CC1` (centres unmarked) [Compound 1, 1-(4-(2-Hydroxyethyl)piperazin-1-yl)-3-(2-methoxy-4-nitrophenoxy)propan-2-ol], the viability at 100 µM in the series with MOLT-4 cells (setting [5]) stood at 35%. Further, in the series with MOLT-4 cells (setting [6]), the viability at 200 µM was determined as 36%. The viability at 48 h, 100 µM in series [1] amounted to 141 ± 42%; in series [2] it was 112 ± 8%; in series [3], 100 ± 9%.

As to `NCCCNCCS` [WR1065, reference compound], the viability at 2 h, 100 µM in series [4] (setting [7]) came out at 64%. In addition, in series [4], the viability at 24 h, 200 µM was 18%. Further, the “Radioprotective effect in MOLT-4 cells (in words)” value with MOLT-4 cells (100 μM and 200 μM) was “did not exhibit distinct radioprotective effects”. Further, in the series with MOLT-4 cells (setting [5]), the viability at 100 µM was 19%. In the series on MOLT-4 cells (setting [6]), the viability at 200 µM turned out to be 9%. The viability at 48 h, 100 µM worked out at 20 ± 2% in series [1], 3% in series [2] and 2% in series [3].

Regarding `O=[N+]([O-])c1ccc(OCC(O)CN2CCN(CCO)CC2)c(F)c1` (centres unmarked) [Compound 3, 1-(4-(2-Hydroxyethyl)piperazin-1-yl)-3-(2-fluoro-4-nitrophenoxy)propan-2-ol], in the series on MOLT-4 cells (setting [5]), the viability at 100 µM was 31%. In the series with MOLT-4 cells (setting [6]), the viability at 200 µM stood at 35%. Also, the viability at 48 h, 100 µM in series [1] turned out to be 94 ± 9%; in series [2] it was 106 ± 11%; in series [3] it was 91 ± 12%.

With `COc1ccc(OCC(O)CN2CCN(CCO)CC2)c([N+](=O)[O-])c1` (centres unmarked) [Compound 2, 1-(4-(2-Hydroxyethyl)piperazin-1-yl)-3-(4-methoxy-2-nitrophenoxy)propan-2-ol], in the series with MOLT-4 cells (setting [5]), the viability at 100 µM was 35%. Besides, the viability at 200 µM with MOLT-4 cells (setting [6]) was 36%. Also, the viability at 48 h, 100 µM in series [1] stood at 103 ± 3%; in series [2], 111 ± 11%; in series [3], 97 ± 8%.

As to `O=[N+]([O-])c1cc(OCC(O)CN2CCN(CCO)CC2)ccc1Cl` (centres unmarked) [Compound 5, 1-(4-(2-Hydroxyethyl)piperazin-1-yl)-3-(4-chloro-3-nitrophenoxy)propan-2-ol], in the series on MOLT-4 cells (setting [5]), the viability at 100 µM was determined as 32%. Besides, the viability at 200 µM with MOLT-4 cells (setting [6]) was found to be 30%. Further, the values for the viability at 48 h, 100 µM in series [1], in series [2] and in series [3] were 95 ± 6%, 109 ± 9% and 104 ± 11%, respectively.

Take `OCCN1CCN(CC(O)COc2cccc(Cl)c2)CC1` (centres unmarked) [Compound 6, 1-(4-(2-Hydroxyethyl)piperazin-1-yl)-3-(3-chlorophenoxy)propan-2-ol]: the figures for the viability at 100 µM in the series on MOLT-4 cells (setting [8]) and with MOLT-4 cells (setting [5]) were 135% and 37%, respectively. Moreover, the viability at 200 µM in the series with MOLT-4 cells (setting [9]) came to 137%; in the series with MOLT-4 cells (setting [6]), 39%. Further, the viability at 48 h, 100 µM turned out to be 85 ± 7% in series [1], 99 ± 11% in series [2] and 86 ± 12% in series [3].

`OCCN1CCN(CC(O)COc2ccc(F)cc2)CC1` (centres unmarked) [Compound 4, 1-(4-(2-Hydroxyethyl)piperazin-1-yl)-3-(4-fluorophenoxy)propan-2-ol]: the viability at 100 µM came out at 143% in the series with MOLT-4 cells (setting [8]) and 35% in the series with MOLT-4 cells (setting [5]). In addition, the viability at 200 µM with MOLT-4 cells (setting [9]) came out at 145%; in the series with MOLT-4 cells (setting [6]) it was 37%. Further, the viability at 48 h, 100 µM in series [1] amounted to 99 ± 3%; in series [2], 112 ± 14%; in series [3], 102 ± 5%.

As for `NCCCNCCSP(=O)(O)O` [WR2721, amifostine, reference compound], in series [4] (setting [7]), the viability at 24 h, 100 µM was found to be 83%. Besides, the viability at 24 h, 200 µM in series [4] is 83%. Besides, the viability at 100 µM was 106% in the series with MOLT-4 cells (setting [8]) and 28% in the series on MOLT-4 cells (setting [5]). For the same compound, the viability at 200 µM in the series on MOLT-4 cells (setting [6]) was 22%. The viability at 48 h, 100 µM came out at 27 ± 3% in series [1], 5% in series [2] and 7 ± 2% in series [3].

(Values after publication PMC11324046, “Second-generation piperazine derivatives as promising radiation countermeasures” (RSC Medicinal Chemistry, 2024).)
